Reference: patent publication US20240002393A1, “SUBSTITUTED BENZO[f][l ,2,4JTRIAZOL0[4,3-a][l ,4J[…] GABA A GAMMA! POSITIVE ALLOSTERIC MODULATORS” (Hoffmann-La Roche Inc., priority 2020, published 2024)
Where “and” joins values, the source holds several entries; their conditions need not be identical. Equal values may be shown once.

How the values were obtained:
Test in all cases: Radioligand binding assay, [3H]RO7239181 competition, γ1-containing GABAA subtypes
[1] = target: human GABAA α2β2γ1 receptor (Homo sapiens (Human), UniProt P47869+Q8N1C3); details: for Ki: HEK293F membranes, [3H]RO7239181 20-30 nM, mean of two determinations, read-out: Ki h-GABAA α2β2γ1; for γ2/γ1 Selectivity Ratio: Ki α1β3γ2 (nM)/Ki α2β2γ1 (nM); for LogSel: Log[Ki α1β3γ2 (nM)/Ki α2β2γ1 (nM)]
Description: (§1) The affinity of compounds at GABAA γ1 subunit-containing receptors was measured by competition for [^3H]RO7239181 (67.3 Ci/mmol; Roche) binding to membranes from HEK293F cells (ThermoFisher R79007) expressing human (transiently transfected) receptors of composition α5β2γ1, α2β2γ1, α1β2γ1.
(§2) Harvested pellets from HEK293F cells expressing the different GABAA receptor subtypes were resuspended in Mannitol Buffer pH 7.2-7.4 (Mannitol 0.29M, Triethylamine 10 mM, Acetic acid 10 mM, EDTA 1 mM plus protease inhibitors (20 tablets Complete, Roche Diagnostics Cat. No. 05 056 489 001 per liter)), washed two times and then resuspended at 1:10 to 1:15 dilution in the same buffer. Cell disruption was performed by stirring the suspension in a Parr vessel #4637 at 435 psi for 15 minutes, and then the suspensions were centrifuged at 1000×g for 15 minutes at 4° C. (Beckman Avanti J-HC; rotor JS)-4.2). The supernatant (S1) was transferred in a 21 Schott flask and the pellet (P1) was resuspended with Mannitol Buffer up to 175 ml. The resuspended pellet was transferred into a 250 ml Corning centrifugal beaker and centrifuged at 1500×g for 10 minutes at 4° C. (Beckman Avanti J-HC; rotor JS)-4.2). The supernatant (S1) was then transferred in the 21 Schott flask and the pellet was discarded. The supernatants (S1) were centrifuged in 500 ml Beckman polypropylene centrifugal beaker at 15,000×g for 30 minutes at 4° C. (Beckman Avanti J-20 XP; rotor JLA-10.500). The pellet (P2) was resuspended with Mannitol Buffer 1:1 and frozen at −80° C. The supernatant (S2) was centrifuged in 100 ml Beckman polypropylene centrifugal tubes at 48000×g for 50 minutes at […] (Beckman Avanti J-20 XP; rotor JA-18). The supernatant (S3) was discarded and the pellet (P3) was resuspended with 1:1 Mannitol Buffer. The P2 and P3 protein concentration was determined with the BIORAD Standard assay method with bovine serum albumin as standard and measured on the NANO-Drop 1000. The membrane suspension was aliquots (500 μl per tube) and stored at −80° C. until required.
(§3) Membrane homogenates were resuspended and polytronised (Polytron PT1200E Kinematica AG) in Potassium Phosphate 10 mM, KCl 100 mM binding buffer at pH 7.4 to a final assay concentration determined with a previous experiment.
(§4) Assays were incubated to equilibrium for 1 hour at 4° C. and then, membranes were filtered onto unifilter (96-well white microplate with bonded GF/C filters preincubated 20-50 minutes in 0.3% Polyethylenimine) with a Filtermate 196 harvester (Packard BioScience) and washed 4 times with cold Potassium Phosphate 10 mM pH 7.4, KCl 100 mM binding buffer. After drying, filter-retained radioactivity was detected by liquid scintillation counting. K, values were calculated using Excel-Fit (Microsoft) and are the means of two determinations.

[2] = target: human GABAA α1β2γ1 receptor (Homo sapiens (Human), UniProt P14867+Q8N1C3); details: HEK293F membranes, [3H]RO7239181 20-30 nM, mean of two determinations
Description: as §1, §2, §3, §4

[3] = target: human GABAA α5β2γ1 receptor (Homo sapiens (Human), UniProt P31644+Q8N1C3); details: HEK293F membranes, mean of two determinations
Description: as §1, with “α1β2γ1. For better protein expression of the α2 subunit-containing receptors, the 28 amino acid long signal peptide (Met1 to Ala28) of the human GABAA α2 subunit was substituted by the 31 amino acid long signal peptide (Met1 to Ser31) of human GABAA α5 subunit.” for “α1β2γ1.”
as §2, §3
as §4, with “Radioligand binding assays were carried out in a volume of 200 µL (96-well plates) which contained 100 μL of cell membranes, [^3H]RO7239181 at a concentration of 1.5 nM (α5β2γ1) or 20-30 nM (α1β2γ1, 2β2γ1) and the test compound in the range of [0.3-10000]×10^−9 M. Nonspecific binding was defined by 10×10^−6 (α5β2γ1) and 30×10^−6 M RO7235136 and typically represented less than 5% (α5β2γ1) and less than 20% (α1β2γ1, α2β2γ1) of the total binding. Assays” for “Assays”
Representative test results, obtained by the above described assay measuring binding affinity to HEK293 cells expressing human (h) receptors, are shown in the Table 1.

Row | Structure (SMILES) | Ki [1] [µM] | γ2/γ1 Selectivity Ratio [1] | LogSel [1] | Ki [2] [µM] | Ki [3] [µM]
1 | C[C@@H]1N=C(c2ncccc2F)c2c(ccc(Cl)c2Cl)-n2c(C3CC3)nnc21 [Example 68, (4S)-7,8-dichloro-1-cyclopropyl-6-(3-fluoro-2-pyridyl)-4-methyl-4H-[1,2,4]triazolo[4,3-a][1,4]benzodiazepine] | 0.0388 | 27.4 | 1.44 | 0.359 | 0.007
2 | C[C@@H]1N=C(c2c(F)cccc2F)c2c(ccc(Cl)c2Br)-n2c(-c3cccnn3)nnc21 [Example 73, (4S)-7-bromo-8-chloro-6-(2,6-difluorophenyl)-4-methyl-1-(pyridazin-3-yl)-4H-benzo[f][1,2,4]triazolo[4,3-a][1,4]diazepine] | 0.0088 | 87.5 | 1.94 | 0.0235 | 0.002
3 | C[C@@H]1N=C(c2c(F)cccc2F)c2c(ccc(Cl)c2Br)-n2c(-c3ccncn3)nnc21 [Example 74, (4S)-7-bromo-8-chloro-6-(2,6-difluorophenyl)-4-methyl-1-pyrimidin-4-yl-4H-[1,2,4]triazolo[4,3-a][1,4]benzodiazepine] | 0.0173 | 107.6 | 2.03 | 0.0283 | 0.0026
4 | Cc1nnc2n1-c1ccc(Br)c(Cl)c1C(c1c(F)cccc1F)=N[C@H]2C [Example 75, (4S)-8-bromo-7-chloro-6-(2,6-difluorophenyl)-1,4-dimethyl-4H-[1,2,4]triazolo[4,3-a][1,4]benzodiazepine] | 0.0053 | 38.0 | 1.58 | 0.0083 | 0.0008
5 | C[C@@H]1N=C(c2c(F)cccc2F)c2c(ccc(Cl)c2Br)-n2c(-c3cnn(C)c3)nnc21 [Example 76, (4S)-7-bromo-8-chloro-6-(2,6-difluorophenyl)-4-methyl-1-(1-methylpyrazol-4-yl)-4H-[1,2,4]triazolo[4,3-a][1,4]benzodiazepine] | 0.0249 | 21.3 | 1.33 | 0.0446 | 0.0036
6 | Cc1nnc2n1-c1ccc(Cl)c(Br)c1C(c1c(F)cccc1F)=N[C@H]2C [Example 80, (4S)-7-bromo-8-chloro-6-(2,6-difluorophenyl)-1,4-dimethyl-4H-[1,2,4]triazolo[4,3-a][1,4]benzodiazepine] | 0.0236 | 45.3 | 1.66 | 0.0426 | 0.003
7 | C[C@@H]1N=C(c2c(F)cccc2F)c2c(ccc(Cl)c2Br)-n2c(-c3ccn(C)n3)nnc21 [Example 81, (4S)-7-bromo-8-chloro-6-(2,6-difluorophenyl)-4-methyl-1-(1-methylpyrazol-3-yl)-4H-[1,2,4]triazolo[4,3-a][1,4]benzodiazepine] | 0.0363 | 43.0 | 1.63 | 0.101 | 0.0043
8 | Cc1nnc2n1-c1ccc(Cl)c(Cl)c1C(c1c(F)cccc1F)=N[C@H]2C [Example 82, (4S)-7,8-dichloro-6-(2,6-difluorophenyl)-1,4-dimethyl-4H-[1,2,4]triazolo[4,3-a][1,4]benzodiazepine] | 0.0106 | 24.6 | 1.39 | 0.0128 | 0.0006
9 | C[C@@H]1N=C(c2ncccc2F)c2c(ccc(Br)c2Cl)-n2c(C3CC3)nnc21 [Example 83, (4S)-8-bromo-7-chloro-1-cyclopropyl-6-(3-fluoro-2-pyridyl)-4-methyl-4H-[1,2,4]triazolo[4,3-a][1,4]benzodiazepine] | 0.0232 | 36.8 | 1.57 | 0.128 | 0.0027
10 | C[C@@H]1N=C(c2ncccc2F)c2c(ccc(Br)c2Cl)-n2cnnc21 [Example 84, (4S)-8-bromo-7-chloro-6-(3-fluoro-2-pyridyl)-4-methyl-4H-[1,2,4]triazolo[4,3-a][1,4]benzodiazepine] | 0.0713 | 16.9 | 1.23 | 0.0971 | 0.0065
11 | Cc1nnc2n1-c1ccc(Br)c(Cl)c1C(c1ncccc1F)=N[C@H]2C [Example 85, (4S)-8-bromo-7-chloro-6-(3-fluoro-2-pyridyl)-1,4-dimethyl-4H-[1,2,4]triazolo[4,3-a][1,4]benzodiazepine] | 0.053 | 13.3 | 1.12 | 0.0636 | 0.0033
12 | Cc1ccc(-c2nnc3n2-c2ccc(Cl)c(Cl)c2C(c2c(F)cccc2F)=N[C@H]3C)nn1 [Example 86, (4S)-7,8-dichloro-6-(2,6-difluorophenyl)-4-methyl-1-(6-methylpyridazin-3-yl)-4H-[1,2,4]triazolo[4,3-a][1,4]benzodiazepine] | 0.0044 | 195.1 and 195 | 2.29 and 2.3 | 0.0059 | 0.0014
13 | Cc1cc(-c2nnc3n2-c2ccc(Cl)c(Cl)c2C(c2c(F)cccc2F)=N[C@H]3C)on1 [Example 87, 5-[(4S)-7,8-dichloro-6-(2,6-difluorophenyl)-4-methyl-4H-[1,2,4]triazolo[4,3-a][1,4]benzodiazepin-1-yl]-3-methyl-isoxazole] | 0.0075 | 70.9 | 1.85 | 0.008 | 0.0021
14 | Cc1ccc(-c2nnc3n2-c2ccc(Cl)c(Br)c2C(c2c(F)cccc2F)=N[C@H]3C)nn1 [Example 88, (4S)-7-bromo-8-chloro-6-(2,6-difluorophenyl)-4-methyl-1-(6-methylpyridazin-3-yl)-4H-[1,2,4]triazolo[4,3-a][1,4]benzodiazepine] | 0.0109 | 133.6 | 2.13 | 0.0345 | 0.0036
15 | C[C@@H]1N=C(c2c(F)cccc2F)c2c(ccc(Cl)c2Br)-n2c1n[nH]c2=O [Example 89, (4S)-7-bromo-8-chloro-6-(2,6-difluorophenyl)-4-methyl-2,4-dihydro-[1,2,4]triazolo[4,3-a][1,4]benzodiazepin-1-one] | 0.077 | 19.0 | 1.28 | 0.106 | 0.0043
